Measured values taken from paper PMC4957904, “A novel validated assay to support the discovery of new anti-malarial gametocytocidal agents” (Malaria Journal, 2016).
Entries after “also recorded” stand apart in the source; their conditions may differ.

Legend:
[1] = system: late-stage (stage V) Plasmodium falciparum gametocytes; assay: Cidal vs static activity assay by qPCR of late-stage gametocyte-specific mRNA (Pf77, ROM3, Pfg377); type: cell-based; details: for cidal vs static effect against late-stage gametocytes (mRNA profile T∞ vs T48) / increase in Ct values, constant drug pressure (T∞) / decrease in mRNA levels (fold change), constant drug pressure (T∞) / increase in Ct values after drug removal (T48): Pf77 coding gene; for cidal vs static effect against late-stage gametocytes (mRNA profile T∞ vs T48): 144 h, concentrations of Table 1; for increase in Ct values, constant drug pressure (T∞) / decrease in mRNA levels (fold change), constant drug pressure (T∞): drug present for 144 h (T∞); for increase in Ct values, constant drug pressure (T∞): 20 × IC50 (EX 2 × IC50); for decrease in mRNA levels (fold change), constant drug pressure (T∞): from Ct increase; for increase in Ct values after drug removal (T48): drug present 48 h, then 96 h without drug (T48); for reduction of mRNA levels after drug removal (T48): drug present only 48 h (T48), from Ct values
Protocol: The in vitro cidal or static anti-malarial activity of a compound against the later stages of gametocyte development at day 15 was assessed by measuring mRNA levels in P.falciparum over 144 h following drug treatment (Fig. 1). Drug activity assays were performed once in two independent cultures in T-75 flasks (Corning, NY, USA). Late-stage gametocytes were incubated with drug and 6 % haematocrit over 48 h. […] IC50 values were obtained from Lelievre et al.. To remove drug from the medium, parasite cultures were harvested and washed two times with 25 ml of RPMI. After drug removal, the parasites were cultured for a further 96 h with complete culture medium either without or with drug, at the same concentration as the initial incubation, to evaluate the reversibility of the compound effect. Medium was changed daily and two samples of 1000 µl of culture at 0, 48, 96, and 144 h were taken, centrifuged and immediately stored at −80 °C for further analysis. An untreated culture was used as a […].
Fig. 1 Scheme showing the cidal vs static in vitro activity assay against stage V Plasmodium falciparum gametocytes. Gametocytes were incubated for 48 h with 20 × IC50. After drug was washed out, the parasites were cultured for 96 h with complete culture medium with drug (A) or without drug (B) to evaluate the reversibility of compound effects. Two samples at t = 0, 48, 96, and 144 h were taken for RNA extraction, cDNA synthesis and qPCR amplification. Comparison of mRNA levels of treated P. falciparum cultures upon removal of the drug was used to assess the cidal vs static activity
For RNA extraction, RNeasy Plus mini kit (Qiagen, Hilden, Germany) was used according to the standard protocol supplied by the manufacturer. cDNA synthesis and SYBR green qPCR were performed in duplicate following the protocol already published by Bahamontes-Rosa et al.. Melting curve analysis was always performed at the end of each assay as a specificity control.
Threshold cycle (Ct) values from the measurement of the cDNA samples were obtained in duplicate using the 7000 and the 7500 fast system Software (Applied Biosystem) and further analysed using an excel data sheet (Microsoft Corporation). The average value was taken as the result and only duplicate Ct values within ±1 Ct difference were accepted. Ct values were used to quantify the relative amount of target PCR product present in each reaction; values are inversely proportional to the amount of template in the sample.
Gene expression during gametocytogenesis was represented with an adaptation of the method described by Livak and Schmittgen as (Ctgene−Ct18S rRNA)Ttime […](Ctgene−Ct18S rRNA)T0, considering the expression at time 0 (T0) as the basal expression and using the 18S rRNA gene as housekeeping gene. Absolute quantification (direct comparison of Ct values) was considered the most appropriate method for the drug activity assays.
Two different treatments were performed in parallel, one with constant drug pressure throughout the experiment (T∞), 144 h in total, and another in which the gametocyte cultures were exposed to the compound for only 48 h, the drug was washed out and then cultured for a further 96 h in fresh complete culture medium (T48) (see Fig. 1).

[2] = system: 3D7A P. falciparum mature gametocytes; parameters: method as in PMID 22514702; details: ATP bioluminescence assay, read-out: P.f. gametocytes IC50; cited from earlier work
[3] = system: late-stage (stage V) Plasmodium falciparum gametocytes; assay: Cidal vs static activity assay by qPCR of late-stage gametocyte-specific mRNA (Pf77, ROM3, Pfg377); type: cell-based; details: Pf77 coding gene; 48 h drug treatment only; TCMDC-125114 at 100 × IC50; CQ at 2, 20 and 125 × asexual IC50
[4] = system: oocysts; parameters: method as in PMID 26317851; details: SMFA ex vivo, assayed at 2.5 µM; cited from earlier work
[5] = cytotoxicity, short-term resazurin-based reductase assay; cited from earlier work

In the case of `Cc1[nH]c2ccccc2c1C(=O)C(C)Sc1n[nH]c(-c2ccccc2Br)n1` (centres unmarked) [TCMDC-125114], the “cidal vs static effect against late-stage gametocytes (mRNA profile T∞ vs T48)” value (“cidal vs static effect” below) [1] is reported as “prolonged reduction in mRNA levels only when the drug was continuously present”, the “increase in Ct values, constant drug pressure (T∞)” value (shortened to “increase in Ct values … (T∞)”) [1] is reported as 7 Ct and the “decrease in mRNA levels (fold change), constant drug pressure (T∞)” value (shortened to “decrease in mRNA levels (fold change)”) [1] is reported as “more than 100 fold”. For the same compound, the IC50 [2] was 130 nM, the “effect on Ct values at increasing concentrations, 48 h drug exposure (minimal gametocytocidal concentration)” value [3] was “cidal activity” and the “reduction in the number of oocysts” value [4] was 100%. The TOX50 [5] was >50 µM.

In the case of `CN1CCOc2ccc(Nc3nnc(-c4cccc(-c5cccnc5)c4)o3)cc2C1` [TCMDC-134278], the IC50 [2] is given as > 5000 nM and the TOX50 [5] is given as 19.95 µM.

For `CCN(CC)CCCC(C)Nc1ccnc2cc(Cl)ccc12` (centres unmarked) [Chloroquine, reference compound], the “cidal vs static effect” value [1] is listed as “did not affect mature gametocytes”, the IC50 [2] is listed as 23500 nM and the “effect on Ct values at increasing concentrations, 48 h drug exposure (minimal gametocytocidal concentration)” value [3] is listed as “no Ct increase”.

For `CC(C)c1ccc(NC(=S)NN=Cc2ccccn2)cc1` [TCMDC-125520], the “cidal vs static effect” value [1] was “static; also recorded: prolonged reduction in mRNA levels only when the drug was continuously present”, the “increase in Ct values after drug removal (T48)” value [1] was ≤ 2 Ct and the “increase in Ct values … (T∞)” value [1] was ~5 Ct. The “decrease in mRNA levels (fold change)” value [1] was “ca. 100 fold”, the “reduction of mRNA levels after drug removal (T48)” value (shortened to “reduction of mRNA levels”) [1] was “less than tenfold” and the IC50 [2] was 9.8 nM. For the same compound, the TOX50 [5] was 12.80 µM.

For `CC[C@H](C)[C@H](NC(=O)[C@H]([C@@H](C)CC)N(C)C(C)=O)C(=O)N[C@H](C(=O)N[C@@H](CC(C)C)C(=O)[C@@]1(C)CO1)[C@@H](C)O` [Epoxomicin, reference compound], the “cidal vs static effect” value [1] was “static”, the “increase in Ct values … (T∞)” value [1] was “at least 5 Ct” and the “decrease in mRNA levels (fold change)” value [1] was ≥ 100 fold. For the same compound, the “reduction of mRNA levels” value [1] was “less than tenfold”, the IC50 [2] was 0.5 nM and the TOX50 [5] was 0.003 µM.

In the case of `C=C(NC(=O)C(=C)NC(=O)c1csc(C2=N[C@@H]3c4csc(n4)[C@H]4NC(=O)c5csc(n5)[C@H]([C@](C)(O)[C@@H](C)O)NC(=O)[C@H]5CSC(=N5)/C(=C/C)NC(=O)[C@H]([C@@H](C)O)NC(=O)c5csc(n5)[C@]3(CC2)NC(=O)[C@H](C)NC(=O)C(=C)NC(=O)[C@H](C)NC(=O)[C@H]([C@@H](C)CC)N[C@@H]2C=Cc3c([C@H](C)O)cc(nc3[C@H]2O)C(=O)O[C@@H]4C)n1)C(N)=O` [Thiostrepton, reference compound], the “cidal vs static effect” value [1] is reported as “static”, the “increase in Ct values … (T∞)” value [1] is reported as “at least 5 Ct” and the “decrease in mRNA levels (fold change)” value [1] is reported as ≥ 100 fold. The “reduction of mRNA levels” value [1] was “less than tenfold” and the IC50 [2] was 900 nM.

In the case of `CCNCc1cccc(-c2ccc3ccnc(N)c3c2)c1` [TCMDC-136869], the IC50 [2] is given as 1660 nM and the TOX50 [5] is given as 12.59 µM.

In the case of `C[C@H]1[C@@H](O)O[C@@H]2O[C@@]3(C)CC[C@H]4[C@H](C)CC[C@@H]1[C@@]24OO3` [Dihydroartemisinin, reference compound], the “cidal vs static effect” value [1] is reported as “static”, the “increase in Ct values … (T∞)” value [1] is reported as “at least 5 Ct” and the “decrease in mRNA levels (fold change)” value [1] is reported as ≥ 100 fold. For the same compound, the “reduction of mRNA levels” value [1] was “less than tenfold”, the IC50 [2] was 3560 nM and the TOX50 [5] was >50 µM.

For `Br.Cc1ccnc(Nc2nc(-c3ccccn3)cs2)c1` [TCMDC-125769], the “cidal vs static effect” value [1] was “static; also recorded: prolonged reduction in mRNA levels only when the drug was continuously present”, the “increase in Ct values after drug removal (T48)” value [1] was ≤ 2 Ct and the “increase in Ct values … (T∞)” value [1] was ~5 Ct. The “decrease in mRNA levels (fold change)” value [1] was “ca. 100 fold”, the “reduction of mRNA levels” value [1] was “less than tenfold” and the IC50 [2] was 40 nM. For the same compound, the TOX50 [5] was >25 µM.

In the case of `COc1cccc(NC(=O)[C@H](C(C)C)n2c(=O)[nH]c3ccccc3c2=O)c1` [TCMDC-125133], the “cidal vs static effect” value [1] is reported as “prolonged reduction in mRNA levels only when the drug was continuously present”, the “increase in Ct values … (T∞)” value [1] is reported as 7 Ct and the “decrease in mRNA levels (fold change)” value [1] is reported as “more than 100 fold”. The IC50 [2] was 540 nM, the “reduction in the number of oocysts” value [4] was 100% and the TOX50 [5] was >50 µM.

In the case of `CN(C)c1ccc2nc3ccc(=[N+](C)C)cc-3sc2c1` [Methylene blue, reference compound], the “cidal vs static effect” value [1] is listed as “cidal”, the IC50 [2] is listed as 490 nM and the TOX50 [5] is listed as 6.52 µM.

With `CNC(=S)NN=C(C)c1ccccn1` [TCMDC-123475] the “cidal vs static effect” value [1] was “prolonged reduction in mRNA levels only when the drug was continuously present”, the “increase in Ct values … (T∞)” value [1] was 7 Ct and the “decrease in mRNA levels (fold change)” value [1] was “more than 100 fold”. For the same compound, the IC50 [2] was 9.8 nM and the TOX50 [5] was >25 µM.
